Measured values from the supplement of paper PMC10307832.

How the values were obtained:
Experiment in all cases: relative viability (nuclei count vs DMSO), 5 days (fraction); higher = more cells survive
Tanzisertib + Alpelisib = compound: O[C@H]1CC[C@H](Nc2ncc3nc(Nc4c(F)cc(F)cc4F)n([C@H]4CCOC4)c3n2)CC1 [Tanzisertib] + Cc1nc(NC(=O)N2CCC[C@H]2C(N)=O)sc1-c1ccnc(C(C)(C)C(F)(F)F)c1 [Alpelisib] (partner 2 µM)
Summary of the method: (§1)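 Nuclei were stained with Hoechst during a one-step fixation (final 0.05% Triton X-100, 1% formaldehyde, 1 ug/ml Hoechst) carried out 5 days after dosing, then counted on 4× images. The cells, lung cancer lines in 1536-well plates, had been dosed by pin tool the day after seeding with one drug alone or a fixed anchor-drug dose plus five library-drug doses (not always all listed) in √10 steps. Relative viability is the nuclei count in treated wells divided by that in vehicle wells, and each value is the median of duplicate plates.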

[1] = compound: C[C@@H](N)c1ccc(C(=O)Nc2ccnc3[nH]ccc23)cc1 + C[C@@H](Oc1cc(-c2cnn(C3CCNCC3)c2)cnc1N)c1c(Cl)ccc(F)c1Cl [Crizotinib] (partner 1 µM)
Summary of the method: as §1

[2] = compound: C1CNCCC1C2=CC(=NN2)C3=CC=NC=C3 + Cc1nc(NC(=O)N2CCC[C@H]2C(N)=O)sc1-c1ccnc(C(C)(C)C(F)(F)F)c1 [Alpelisib] (partner 2 µM)
Summary of the method: as §1

[3] = compound: C[C@@H](N)c1ccc(C(=O)Nc2ccnc3[nH]ccc23)cc1 + Cc1nc(NC(=O)N2CCC[C@H]2C(N)=O)sc1-c1ccnc(C(C)(C)C(F)(F)F)c1 [Alpelisib] (partner 2 µM)
Summary of the method: as §1

Cell Line	relative viability (Tanzisertib + Alpelisib; first compound 0.08 µM)	relative viability (Tanzisertib + Alpelisib; first compound 0.253 µM)	relative viability (Tanzisertib + Alpelisib; first compound 0.8 µM)	relative viability (Tanzisertib + Alpelisib; first compound 2.53 µM)	relative viability (Tanzisertib + Alpelisib; first compound 8 µM)	relative viability ([1]; first compound 0.04 µM)	relative viability ([1]; first compound 0.1265 µM)	relative viability ([1]; first compound 0.4 µM)	relative viability ([1]; first compound 1.265 µM)	relative viability ([1]; first compound 4 µM)	relative viability ([2]; first compound 0.08 µM)	relative viability ([2]; first compound 2.53 µM)	relative viability ([2]; first compound 8 µM)	relative viability ([3]; first compound 0.04 µM)	relative viability ([3]; first compound 0.1265 µM)	relative viability ([3]; first compound 0.4 µM)	relative viability ([3]; first compound 1.265 µM)	relative viability ([3]; first compound 4 µM)	relative viability ([2]; first compound 0.8 µM)
HCC-78	0.322	0.304	0.309	0.372	0.34	0.383	0.347	0.363	0.453	0.32	0.344	0.37	0.411	0.505	0.354	0.483	0.577	0.33	–
HCC-366	0.438	0.346	0.295	0.377	0.287	0.71	0.536	0.683	–	0.483	0.561	0.426	0.378	0.41	0.398	0.581	–	0.329	0.233
HCC-827	1.08	0.97	0.946	0.895	0.391	0.928	0.957	0.925	0.941	0.795	0.97	0.916	0.972	0.982	1.09	1.04	1.03	0.895	0.668
HOP-62	0.956	1.1	1.02	1.11	1.16	0.685	0.798	0.908	0.853	0.709	0.734	1.11	0.858	0.761	0.825	0.793	0.705	0.805	0.933
IA-LM	0.908	0.802	0.83	0.85	0.956	1.02	0.937	1.17	1.08	0.938	0.834	0.762	0.837	0.83	0.999	1.09	1.11	1.06	0.763
LC-2-ad	0.902	0.888	0.939	0.876	0.815	0.43	0.486	0.501	0.438	0.409	0.791	0.913	0.934	0.894	0.862	0.807	0.843	0.61	0.751
LCLC-97TM1	–	0.276	0.271	0.238	0.292	0.32	0.322	0.463	0.961	0.638	0.224	0.241	0.225	0.242	0.239	0.343	0.373	0.48	0.205
LCLC-103H	0.983	0.94	0.965	0.981	0.923	1.19	1.02	1.13	1.01	0.903	1.05	1.05	1	1.15	0.956	1.03	0.94	0.828	0.966
LK-2	1.12	0.946	1.16	1.07	1.12	0.227	0.251	0.224	–	0.218	1.09	1.21	1.24	1.3	1.02	1.17	–	0.83	1.11
